Tested on: tail wounds of irradiated mice
Experiment: Healing of tail bite wounds in irradiated mice
Assay type: in vivo
Details: male mice with tail bite wounds; 7, 8, or 9 Gy 60 Cobalt gamma radiation single acute dose; direct muscle injection 0.5 ml bolus at 2 micromolar; 7 weeks post-radiation exposure; saline controls had unhealed tail wounds
Description: The male mice fought while confined with four mice/bin. They sustained extensive tail wounds from biting. We then exposed the mice to either 7, 8, or 9 Gy 60 Cobalt gamma radiation in a single acute dose. [Sar^9,Met(02)^11]-substance P was administered by direct muscle injection in a 0.5 ml bolus at 2 micromolar concentration. Control animals received injections of normal saline.

Q: With [Sar^9,Met(O2)^11]-substance P as the substance, how does the unhealed tail wounds read?
A: did not have any unhealed tail wounds

— patent publication US20080318869A1, “Method to Promote Wound Healing” (IMMUNEREGEN BIOSCIENCES, INC., priority 2004, published 2008)
